According to patent US20220098203A1 (priority 2018, published 2022):

Tests used:
[1] = system: SAM in HCT116 MTAP-deleted cells; assay: Cellular assay of target engagement (SAM), LC-MS/MS; type: cell-based, human; conditions: Homo sapiens, HCT-116, Table 5a, 72 h, read-out: Cell 72 h SAM Inhibition (MTAP −/−)
Outline: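 HCT116 cells with MTAP deleted were treated with compound for 72 h at 37°C/5% CO2. After quenching lysis in cold 80% methanol with 1 M acetic acid, SAM was quantified by LC-MS/MS against a d3-SAM internal standard.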

HCT116 MTAP+/+ = assay: Inhibition of cellular proliferation (Cell Titer Glo), HCT116 MTAP+/+; type: cell-based; conditions: Homo sapiens, HCT-116, 96 h, Table 5a, 4 days, read-out: 4 Day Relative Growth Inhibition (MTAP +/+)
Outline: (§1)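 Isogenic HCT116 MTAP+/+ and MTAP−/− cells were plated, treated with MAT2A inhibitor after 24 h, and incubated 4 days at 37 °C. Proliferation was read by CellTiter-Glo ATP luminescence, blank-subtracted and normalized to 0.2% DMSO control.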

MAT2A homodimer = target: T1, MAT2A homodimer (Homo sapiens, UniProt P31153); assay: MAT2A biochemical assay (liberated phosphate, PiColorLock Gold); conditions: Table 5a; MAT2A biochemical assay; read-out: Enzyme Inhibition
T1 construct: inferred from the Ni sepharose purification and imidazole elution; made in house; host or cells: SF9 insect cells, recombinant baculovirus (Bac to Bac, pFASTBAC1)
Outline: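 Baculovirus/Sf9-expressed, Ni-purified MAT2A homodimer preincubated with compound 60 min at 25 °C, then reacted 60 min at 25 °C with substrate mix of 500 μM ATP and 400 μM L-methionine, pH 7.0 (mix, not final levels). Phosphate released with SAM measured by PiColorLock Gold against phosphate standard curve.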

HCT116 MTAP-/- = assay: Inhibition of cellular proliferation (Cell Titer Glo), HCT116 MTAP-/-; type: cell-based, human; conditions: Homo sapiens, HCT-116, 96 h, Table 5a, 4 days, read-out: 4 Day Relative Growth Inhibition (MTAP −/−)
Outline: as §1

T1 sequence (P31153 whole entry): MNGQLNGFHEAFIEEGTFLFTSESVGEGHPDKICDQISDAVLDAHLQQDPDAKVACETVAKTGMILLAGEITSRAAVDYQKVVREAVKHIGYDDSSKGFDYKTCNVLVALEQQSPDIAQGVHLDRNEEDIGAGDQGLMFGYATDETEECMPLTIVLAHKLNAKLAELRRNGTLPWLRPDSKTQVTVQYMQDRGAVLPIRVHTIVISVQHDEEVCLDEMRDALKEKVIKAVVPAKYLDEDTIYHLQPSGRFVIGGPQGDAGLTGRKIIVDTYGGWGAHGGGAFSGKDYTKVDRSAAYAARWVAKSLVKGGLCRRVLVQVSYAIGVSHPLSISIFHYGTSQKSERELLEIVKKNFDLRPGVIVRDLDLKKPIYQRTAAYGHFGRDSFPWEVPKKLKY

| Compound | IC50 [1] [nM] | IC50 (HCT116 MTAP+/+) [nM] | IC50 (MAT2A homodimer) [nM] | IC50 (HCT116 MTAP-/-) [nM] |
| --- | --- | --- | --- | --- |
| Cn1cc2cc(N3Cc4ccc(OCC(F)F)nc4N(c4ccc5c(c4)ncn5C)C3=O)ccc2n1 [Example 403, 7-(2,2-difluoroethoxy)-1-(1-methyl-1H-benzo[d]imidazol-5-yl)-3-(2-methyl-2H-indazol-5-yl)-3,4-dihydropyrido[2,3-d]pyrimidin-2(1H)-one] | < 100 | > 1000 | < 100 | 100 to 1000 |
| Cn1cc2cc(N3Cc4ccc(OCC(F)F)nc4N(c4ccc5[nH]cnc5c4)C3=O)ccc2n1 [Example 404, 1-(1H-benzo[d]imidazol-5-yl)-7-(2,2-difluoroethoxy)-3-(2-methyl-2H-indazol-5-yl)-3,4-dihydropyrido[2,3-d]pyrimidin-2(1H)-one] | 100 to 1000 | > 1000 | < 100 | 100 to 1000 |
| Cn1cc2cc(N3Cc4ccc(OCC(F)F)nc4N(c4ccc5[nH]ncc5c4)C3=O)ccc2n1 [Example 405, 7-(2,2-difluoroethoxy)-1-(1H-indazol-5-yl)-3-(2-methyl-2H-indazol-5-yl)-3,4-dihydropyrido[2,3-d]pyrimidin-2(1H)-one] | < 100 | > 1000 | < 100 | 100 to 1000 |
| COc1ccc(N2Cc3ccc(NCC(F)(F)F)nc3N(c3ccc(OC(F)F)cc3)C2=O)cc1 [Example 406, 1-(4-(difluoromethoxy)phenyl)-3-(4-methoxyphenyl)-7-((2,2,2-trifluoroethyl)amino)-3,4-dihydropyrido[2,3-d]pyrimidin-2(1H)-one] | 100 to 1000 | > 1000 | < 100 | 100 to 1000 |
| COc1ccc(N2Cc3ccc(NCC(F)(F)F)nc3N(c3ccc(Cl)cc3)C2=O)cc1 [Example 407, 1-(4-chlorophenyl)-3-(4-methoxyphenyl)-7-((2,2,2-trifluoroethyl)amino)-3,4-dihydropyrido[2,3-d]pyrimidin-2(1H)-one] | > 1000 | > 1000 | 100 to 1000 | > 1000 |
| O=C1N(c2ccc3ncsc3c2)Cc2ccc(OCC(F)F)nc2N1c1ccc(OC(F)F)cc1 [Example 408, 3-(benzo[d]thiazol-6-yl)-7-(2,2-difluoroethoxy)-1-(4-(difluoromethoxy)phenyl)-3,4-dihydropyrido[2,3-d]pyrimidin-2(1H)-one] | < 100 | > 1000 | < 100 | 100 to 1000 |
| O=C1N(c2ccc3ncsc3c2)Cc2ccc(OCC(F)F)nc2N1c1ccc(Br)cc1 [Example 409, 3-(benzo[d]thiazol-6-yl)-1-(4-bromophenyl)-7-(2,2-difluoroethoxy)-3,4-dihydropyrido[2,3-d]pyrimidin-2(1H)-one] | < 100 | 100 to 1000 | < 100 | < 100 |
| Cn1cc2cc(N3Cc4ccc(OCC(F)F)nc4N(c4ccc5[nH]cc(C#N)c5c4)C3=O)ccc2n1 [Example 410, 5-(7-(2,2-difluoroethoxy)-3-(2-methyl-2H-indazol-5-yl)-2-oxo-3,4-dihydropyrido[2,3-d]pyrimidin-1(2H)-yl)-1H-indole-3-carbonitrile] | < 100 | > 1000 | < 100 | 100 to 1000 |
| Cn1cc2cc(N3Cc4ccc(OCC(F)F)nc4N(c4ccc5oc(N)nc5c4)C3=O)ccc2n1 [Example 411, 1-(2-aminobenzo[d]oxazol-5-yl)-7-(2,2-difluoroethoxy)-3-(2-methyl-2H-indazol-5-yl)-3,4-dihydropyrido[2,3-d]pyrimidin-2(1H)-one] | < 100 | > 1000 | < 100 | < 100 |
| Cn1cc2cc(N3Cc4ccc(OCC(F)F)nc4N(c4ccc(NC(N)=O)cc4)C3=O)ccc2n1 [Example 412, 1-(4-(7-(2,2-difluoroethoxy)-3-(2-methyl-2H-indazol-5-yl)-2-oxo-3,4-dihydropyrido[2,3-d]pyrimidin-1(2H)-yl)phenyl)urea] | < 100 | > 1000 | < 100 | < 100 |
| CCOc1cnc2c(n1)N(c1ccc(Cl)cc1)C(=O)N(c1ccc3nn(C)cc3c1)C2 [Example 413, 1-(4-chlorophenyl)-7-ethoxy-3-(2-methyl-2H-indazol-5-yl)-3,4-dihydropteridin-2(1H)-one] | < 100 | > 1000 | < 100 | 100 to 1000 |
| Cn1cc2cc(N3Cc4ncc(NCC(F)(F)F)nc4N(c4ccc(OC(F)F)cc4)C3=O)ccc2n1 [Example 414, 1-(4-(difluoromethoxy)phenyl)-3-(2-methyl-2H-indazol-5-yl)-7-((2,2,2-trifluoroethyl)amino)-3,4-dihydropteridin-2(1H)-one] | < 100 | > 1000 | < 100 | < 100 |
| COc1ccc(N2Cc3ncc(NCC(F)(F)F)nc3N(c3ccc(OC(F)F)cc3)C2=O)cc1 [Example 415, 1-(4-(difluoromethoxy)phenyl)-3-(4-methoxyphenyl)-7-((2,2,2-trifluoroethyl)amino)-3,4-dihydropteridin-2(1H)-one] | 100 to 1000 | 100 to 1000 | < 100 | 100 to 1000 |
| COc1ccc(N2Cc3ncc(NCC(F)(F)F)nc3N(c3ccc(Cl)cc3)C2=O)cc1 [Example 416, 1-(4-chlorophenyl)-3-(4-methoxyphenyl)-7-((2,2,2-trifluoroethyl)amino)-3,4-dihydropteridin-2(1H)-one] | 100 to 1000 | > 1000 | < 100 | 100 to 1000 |
| [2H]C([2H])([2H])Oc1ccc(N2C(=O)N(c3ccc4nn(C)cc4c3)Cc3ncc(OCC)nc32)cc1 [Example 417, 7-ethoxy-1-(4-(methoxy-d3)phenyl)-3-(2-methyl-2H-indazol-5-yl)-3,4-dihydropteridin-2(1H)-one] | < 100 | 100 to 1000 | < 100 | 100 to 1000 |
| [2H]C([2H])([2H])Oc1ccc(N2C(=O)N(c3ccc4nn(C)cc4c3)Cc3cnc(NCC)nc32)cc1 [Example 419, 7-(ethylamino)-1-(4-(methoxy-d3)phenyl)-3-(2-methyl-2H-indazol-5-yl)-3,4-dihydropyrimido[4,5-d]pyrimidin-2(1H)-one] | 100 to 1000 | 100 to 1000 | < 100 | 100 to 1000 |
| [2H]C([2H])([2H])Oc1ccc(N2C(=O)N(c3ccc4nn(C)cc4c3)Cc3cnc(NCC(F)F)nc32)cc1 [Example 420, 7-((2,2-difluoroethyl)amino)-1-(4-(methoxy-d3)phenyl)-3-(2-methyl-2H-indazol-5-yl)-3,4-dihydropyrimido[4,5-d]pyrimidin-2(1H)-one] | < 100 | 100 to 1000 | < 100 | 100 to 1000 |
| [2H]C([2H])([2H])Oc1ccc(N2C(=O)N(c3ccc4nn(C)cc4c3)Cc3cnc(NCC(F)(F)F)nc32)cc1 [Example 421, 1-(4-(methoxy-d3)phenyl)-3-(2-methyl-2H-indazol-5-yl)-7-((2,2,2-trifluoroethyl)amino)-3,4-dihydropyrimido[4,5-d]pyrimidin-2(1H)-one] | < 100 | > 1000 | < 100 | < 100 |
| COc1ccc(N2C(=O)N(c3ccc4nn(C)cc4c3)Cc3cnc(NCC(F)(F)F)nc32)cc1 [Example 422, 1-(4-methoxyphenyl)-3-(2-methyl-2H-indazol-5-yl)-7-((2,2,2-trifluoroethyl)amino)-3,4-dihydropyrimido[4,5-d]pyrimidin2(1H)-one] | < 100 | > 1000 | < 100 | < 100 |
